Data from PubChem BioAssay AID1919013 (Molecular Pharmacology Branch, DTP, NCI, 2023).
Values joined by “and” are separate entries in the source; they are usually repeats but may differ in a detail not shown here. Identical values can stand only once.

Tested on: LG0703-F498-PDC complex spheroid growth
Assay: Anticancer human tumor LG0703-F498-PDC patient-derived lung adenocarcinoma cell line growth inhibition [AhR]
Details: for viability, T/C: stronger effect = lower value; active means viability on the fitted dose curve at most 10% of control; inactive means the rest
In short: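 Agents were dosed in half-log steps down from roughly clinical Cmax, or from 10 microM where Cmax was unknown, alone and with AhR antagonists. Read-out: percent test/control growth of tumor spheroids containing HUVEC and MSC stromal cells.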

[1] = curve of first compound, second compound 0.1 µM
[2] = curve of first compound, second compound 0.316 µM
[3] = curve of first compound, second compound 1 µM
[4] = curve of first compound, second compound 3.16 µM
[5] = curve of first compound, second compound 10 µM
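Further: luminescence taken as a proxy for viable cell amount.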
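Wherever viability, T/C is given: percent of DMSO vehicle control where 100% means growth equal to vehicle.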

CC1COCCN1c1cc(-c2ccnn2C)c2ccnc(-c3ccn[nH]3)c2n1 (configuration not stated)
597 nM and 726 nM and 723 nM: IC50 (curve of compound)
inactive: viability, T/C (compound 0.00316 µM) 97.6% and 98.2% and 105% | viability, T/C (compound 0.01 µM) 102% and 105% and 98.7% | viability, T/C (compound 0.0316 µM) 106% and 82.9% and 90.9% | viability, T/C (compound 0.1 µM) 86.3% and 83.7% and 85% | viability, T/C (compound 0.316 µM) 62.1% and 66.7% and 69.9% | viability, T/C (compound 1 µM) 40.7% and 43.3% and 42%

O=C(C=Cn1cnc(-c2cc(C(F)(F)F)cc(C(F)(F)F)c2)n1)NNc1cnccn1 + CC(CO)NC(=O)c1cc(-c2ccc(Cl)cc2)nn(-c2cnn(C)c2)c1=O
26.9 nM: IC50 [4]
45.6 nM: IC50 [2]
60 nM: IC50 [1]
57.3 nM: IC50 [3]
inactive: viability, T/C (second compound 0.1 µM, first compound 0.00949 µM) 68.1% | viability, T/C (second compound 0.1 µM, first compound 0.03 µM) 64.5% | viability, T/C (second compound 0.1 µM, first compound 0.0949 µM) 40.4% | viability, T/C (second compound 0.1 µM, first compound 0.3 µM) 40.6% | viability, T/C (second compound 0.1 µM, first compound 0.949 µM) 37.8% | viability, T/C (second compound 0.1 µM, first compound 3 µM) 36.9% | viability, T/C (second compound 0.316 µM, first compound 0.00949 µM) 67.3% | viability, T/C (second compound 0.316 µM, first compound 0.03 µM) 54.5% | viability, T/C (second compound 0.316 µM, first compound 0.0949 µM) 42.1% | viability, T/C (second compound 0.316 µM, first compound 0.3 µM) 36.2% | viability, T/C (second compound 0.316 µM, first compound 0.949 µM) 35.6% | viability, T/C (second compound 0.316 µM, first compound 3 µM) 32.4% | viability, T/C (second compound 1 µM, first compound 0.00949 µM) 64.8% | viability, T/C (second compound 1 µM, first compound 0.03 µM) 54.1% | viability, T/C (second compound 1 µM, first compound 0.0949 µM) 48% | viability, T/C (second compound 1 µM, first compound 0.3 µM) 36.7% | viability, T/C (second compound 1 µM, first compound 0.949 µM) 34.1% | viability, T/C (second compound 1 µM, first compound 3 µM) 34.1% | viability, T/C (second compound 3.16 µM, first compound 0.00949 µM) 59.5% | viability, T/C (second compound 3.16 µM, first compound 0.03 µM) 50.1% | viability, T/C (second compound 3.16 µM, first compound 0.0949 µM) 36.1% | viability, T/C (second compound 3.16 µM, first compound 0.3 µM) 38.2% | viability, T/C (second compound 3.16 µM, first compound 0.949 µM) 28.7% | viability, T/C (second compound 3.16 µM, first compound 3 µM) 31.4% | viability, T/C (second compound 10 µM, first compound 0.00949 µM) 61% | viability, T/C (second compound 10 µM, first compound 0.03 µM) 54.7% | viability, T/C (second compound 10 µM, first compound 0.0949 µM) 35.7% | viability, T/C (second compound 10 µM, first compound 0.3 µM) 33.3% | viability, T/C (second compound 10 µM, first compound 0.949 µM) 28.6% | viability, T/C (second compound 10 µM, first compound 3 µM) 28.9%
39.7 nM: IC50 [5]

COc1cc(C2c3cc4c(cc3C(OC3OC5COC(C)OC5C(O)C3O)C3COC(=O)C23)OCO4)cc(OC)c1O (configuration not stated) + Cc1ccccc1N=Nc1ccc(NC(=O)c2ccnn2C)c(C)c1
> 10000 nM: IC50 [1] | IC50 [2] | IC50 [3] | IC50 [4] | IC50 [5]
inactive: viability, T/C (second compound 0.1 µM, first compound 0.0316 µM) 94.8% | viability, T/C (second compound 0.1 µM, first compound 0.1 µM) 103% | viability, T/C (second compound 0.1 µM, first compound 0.316 µM) 86.2% | viability, T/C (second compound 0.1 µM, first compound 1 µM) 95.2% | viability, T/C (second compound 0.1 µM, first compound 3.16 µM) 91.3% | viability, T/C (second compound 0.1 µM, first compound 10 µM) 72.1% | viability, T/C (second compound 0.316 µM, first compound 0.0316 µM) 96.2% | viability, T/C (second compound 0.316 µM, first compound 0.1 µM) 93.5% | viability, T/C (second compound 0.316 µM, first compound 0.316 µM) 106% | viability, T/C (second compound 0.316 µM, first compound 1 µM) 79.5% | viability, T/C (second compound 0.316 µM, first compound 3.16 µM) 68.4% | viability, T/C (second compound 0.316 µM, first compound 10 µM) 59.3% | viability, T/C (second compound 1 µM, first compound 0.0316 µM) 79.2% | viability, T/C (second compound 1 µM, first compound 0.1 µM) 104% | viability, T/C (second compound 1 µM, first compound 0.316 µM) 99.4% | viability, T/C (second compound 1 µM, first compound 1 µM) 79.8% | viability, T/C (second compound 1 µM, first compound 3.16 µM) 65.2% | viability, T/C (second compound 1 µM, first compound 10 µM) 62.7% | viability, T/C (second compound 3.16 µM, first compound 0.0316 µM) 85.5% | viability, T/C (second compound 3.16 µM, first compound 0.1 µM) 94% | viability, T/C (second compound 3.16 µM, first compound 0.316 µM) 93.5% | viability, T/C (second compound 3.16 µM, first compound 1 µM) 80.2% | viability, T/C (second compound 3.16 µM, first compound 3.16 µM) 74.2% | viability, T/C (second compound 3.16 µM, first compound 10 µM) 59.6% | viability, T/C (second compound 10 µM, first compound 0.0316 µM) 77% | viability, T/C (second compound 10 µM, first compound 0.1 µM) 96.5% | viability, T/C (second compound 10 µM, first compound 0.316 µM) 93.5% | viability, T/C (second compound 10 µM, first compound 1 µM) 73.5% | viability, T/C (second compound 10 µM, first compound 3.16 µM) 81.4% | viability, T/C (second compound 10 µM, first compound 10 µM) 70.6%

Nc1ccccc1NC(=O)c1ccc(CNC(=O)OCc2cccnc2)cc1
inactive: viability, T/C (compound 0.0316 µM) 90.9% and 98.6% and 92.2% | viability, T/C (compound 0.1 µM) 105% (2×) and 83.9% | viability, T/C (compound 0.316 µM) 94.5% and 81.1% and 70.5% | viability, T/C (compound 1 µM) 55.2% and 47.8% and 24.5%
1160 nM and 920 nM and 523 nM: IC50 (curve of compound)
active: viability, T/C (compound 10 µM) 0.41% and 1.49% and 0.42%
10.7% and 14.8% and 2.77%: viability, T/C (compound 3.16 µM)

CC(CO)NC(=O)c1cc(-c2ccc(Cl)cc2)nn(-c2cnn(C)c2)c1=O (configuration not stated)
> 10000 nM: IC50 (compound alone, run of 05/31/2022)
inactive: viability, T/C (compound 1 µM) 87.9% [middle of 21 runs] | viability, T/C (compound 10 µM) 77% [middle of 19 runs]
